Earlier results on 1 compound are cited in publication PMC12751000, “Dual Agonist/Antagonist Modulation of α9-Containing Nicotinic Acetylcholine Receptors by 2‑Ammoniumethyl Ethers of Stilbenol and Stilbenol Analogues” (Journal of Medicinal Chemistry, 2025).

pEC50: −log10 of the molar value.

This data set has as its target α7[L247T] mutant receptor. More on the design: method as in previous findings, citation number not given. The note with it: chick α7[L247T] mutant; ref: previous findings, citation number not given; cited from earlier work.

Turning to `CC[N+](CC)(CC)CCOc1ccc(/C=C/c2ccccc2)cc1` [Compound 1, 2-triethylammonium ethyl ether of 4-stilbenol], the pEC50 (usually the EC50 on a negative log10 scale, so that one unit is a factor of ten) is 9.70.
